Like-named read-outs stand apart in the source and are kept apart here.
Key:
[1] = Caco-2 homogenate S9 stability / release of gabapentin; format: in vitro ADME; settings: incubation with Caco-2 homogenate for 1 hour
Method: The stability of aminoacyl-gabapentin conjugates was evaluated by incubating the conjugates in the various tissue and enzyme-containing preparations listed in Table 1 below.
Tissue homogenates and plasma samples were obtained from commercial sources (Pel-Freez Biologicals, Rogers, Ariz., and GenTest Corporation, Woburn, Mass.). Stability of prodrugs toward the specific enzyme aminopeptidase was also evaluated by incubation with the purified enzyme. Experimental conditions used for the in vitro studies were as follows. Each preparation was incubated with test compound at 37° C. for one hour. Aliquots (50 μL) were removed at 0, 30, and 60 min and quenched with 0.1% trifluoroacetic acid in acetonitrile. Samples were then centrifuged and analyzed for the presence of prodrug and released gabapentin by LC/MS/MS as described below.
Concentrations of prodrug or gabapentin in tissue extracts were determined by direct injection onto an API 2000 LC/MS/MS equipped with an Agilent 1100 binary pump and autosampler. Separation was achieved using a 3.5 μm Zorbax Ellipse XDB-C8 4.4×150 mm column heated to 45° C. during the analysis. The mobile phases were: 0.1% formic acid in water (A) and 0.1% formic acid in acetonitrile (B). The gradient condition was: 2% B for 0.5 min, increasing to 90% B in 2.0 min, maintained for 2.5 min and returning to 2% B for 2 min. A TurboIonSpray source was used on the API 2000. The analysis was performed in the positive ion mode and MRM transitions of 172.0/137.2 were used in the analysis of gabapentin (2). Ten microliters of the sample extracts were injected. Peaks were integrated using Analyst quantitation software. The method was linear for (2) over the concentration range 0.002 to 2.5 μg/mL respectively.
The stability of gabapentin-containing prodrugs to Caco-2 homogenates was evaluated as follows:
Caco-2 Homogenate S9 Stability: Caco-2 cells were grown for 21 days prior to harvesting. Culture medium was removed and cell monolayers were rinsed and scraped off into ice-cold 10 mM sodium phosphate/0.15 M potassium chloride, pH 7.4. Cells were lysed by sonication at 4° C. using a probe sonicator. Lysed cells were then transferred into 1.5 mL centrifuge vials and centrifuged at 9000 g for 20 min at 4° C. The resulting supernatant (Caco-2 cell homogenate S9 fraction) was aliquoted into 0.5 mL vials and stored at −80° C. until used.
For stability studies, prodrug (5 μM) was incubated in Caco-2 homogenate S9 fraction (0.5 mg protein per mL) for 60 min at 37° C. Concentrations of intact prodrug and released drug were determined at zero time and 60 minutes using LC/MS/MS.

in vivo [2] = settings: rat; for Cmax for prodrug (Cmax PD) in plasma: single oral dose of prodrug, 25 mg-equivalents of gabapentin per kg
Method: The pharmacokinetics of the prodrugs prepared in Examples 1 and 3 were examined in rats. […] Animals were fasted overnight prior to dosing and until 4 hours post-dosing. Serial blood samples were obtained over 24 hours following dosing and blood was processed for plasma by centrifugation. Plasma samples were stored at −80° C. until analyzed.
Plasma (50 μL) was precipitated by addition of […] of methanol and supernatant was injected directly onto the LC/MS/MS system. […] Following oral administration of gabapentin prodrugs, concentrations of prodrug and gabapentin in plasma were monitored over 24 hours.

[3] = monkey, sodium salt in water, 10 mg-equivalents of gabapentin per kg
[4] = rat, intracolonic, sodium salt, dose equivalent to 25 mg of gabapentin per kg
Method: Rats were obtained commercially and were pre-cannulated in the both the ascending colon and the jugular vein. Animals were conscious at the time of the experiment. All animals were fasted overnight and until 4 hours post-dosing. […] Blood samples (0.5 mL) were obtained from the jugular cannula at intervals over 8 hours and were quenched immediately by addition of acetonitrile/methanol to prevent further conversion of the prodrug.

[5] = rat; for fraction of prodrug absorbed intact following oral administration: oral and i.v. dosing of prodrug
[6] = monkey; for AUC for gabapentin (AUC G) / Cmax for gabapentin (Cmax G) / increase in gabapentin exposure (as measured by AUC) for a 7.5-fold increase in dose: oral; for increase in gabapentin exposure (as measured by AUC) for a 7.5-fold increase in dose: 10 to 75 mg-eq/kg
Method: (§6) The prodrug was administered orally to four adult male monkeys (approximate body weight of 6.5 kg) via an oral nasogastric tubeas solutions in water or PEG 400. The dose was 10 or 75 mg-equivalents of gabapentin per kg body weight. Animals were fasted overnight before the study and for 4 hours post-dosing. Blood samples (1.0 mL) were obtained via femoral or cephalic venipuncture at intervals over 48 hours after oral dosing. Blood was processed immediately for plasma and plasma was frozen at −80° C. until analyzed. […] Oral bioavailability was determined by comparison of area under the gabapentin concentration versus time curve (AUC) following oral administration of prodrug or intravenous administration of an equimolar dose of gabapentin hydrochloride.

PEPT2 = settings: tested at 1 mM on oocytes expressing PEPT2; normalised to 1 mM glycyl-sarcosine
Method: (§1) Rat and human PEPT1 and PEPT2 expressing CHO cell lines were prepared as described in PCT Application WO01/20331. Gabapentin-containing dipeptides were evaluated for interaction with the peptide transporters using a radiolabeled substrate uptake assay in a competitive inhibition format, as described in PCT Application WO01/20331. Transport-induced currents were also measured in Xenopus oocytes transfected with rat and human PEPT1 and PEPT2.
(§2) (b) Analysis of Electrogenic Transport in Xenopus oocytes
(§3) RNA preparation: Rat and human PEPT1 and PEPT2 transporter cDNAs were subcloned into a modified pGEM plasmid that contains 5′ and 3′ untranslated sequences from the Xenopus β-actin gene. These sequences increase RNA stability and protein expression. Plasmid cDNA was linearized and used as template for in vitro transcription (Epicentre Technologies transcription kit, 4:1 methylated:non-methylated GTP).
(§4) Xenopus oocyte isolation. Xenopus laevis frogs were anesthetized by immersion in Tricaine ([…] in deionized water) for 15 min. […]
(§5) Electrophysiology measurements. Transport currents were measured 2-14 days after injection, using a standard two-electrode electrophysiology set-up (Geneclamp 500 amplifier, Digidata 1320/PCLAMP software and ADInstruments hardware and software were used for signal acquisition).

PEPT1 = settings: tested at 1 mM on oocytes expressing PEPT1; normalised to 1 mM glycyl-sarcosine
Method: as §1, §2, §3, §4, §5

in vivo [7] = settings: male, monkey, plasma, po
Method: as §6

[8] = man, cited from earlier work
[9] = male, Sprague-Dawley, plasma, po, 25 mg/kg

## N[C@@H](Cc1ccc(C(F)(F)F)cc1)C(=O)NCC1(CC(=O)O)CCCCC1 [1aa, L-4-Trifluoromethylphenylalanine-Gabapentin]
[1]
  % of prodrug surviving intact: 97%
In vivo [2]
  Cmax for prodrug (Cmax PD) in plasma: 30.0 µg/mL

## N[C@@H](Cc1ccc(Br)cc1)C(=O)NCC1(CC(=O)O)CCCCC1 [1ah, L-4-Bromophenylalanine-Gabapentin]
[1]
  % of prodrug surviving intact: 79%
[3]; oral
  AUC for gabapentin (AUC G): 29.1 ± 3.5 µg·h/mL
  AUC for prodrug (AUC PD): 18.9 ± 6.5 µg·h/mL
  Cmax for gabapentin (Cmax G): 3.8 ± 1.1 µg/mL
  CmaxPH (Cmax for prodrug): 14.9 ± 5.3 µg/mL
[3]
  oral bioavailability as gabapentin (F): 49.1±6.8%
[4]
  area under the gabapentin plasma concentration vs. time curve relative to colonic administration of gabapentin itself: > 3 fold
  maximum plasma concentration of gabapentin relative to colonic administration of gabapentin itself: > 3 fold
In vivo [2]; oral 25 mg/kg (or 25 mg-equivalents of gabapentin per kg) vs intravenous gabapentin
  oral bioavailability (F) as gabapentin: 53%
In vivo [2]; single oral dose 25 mg/kg (or 25 mg-equivalents of gabapentin per kg)
  maximum plasma concentration (Cmax) of gabapentin: 6.1 µg/mL
In vivo [2]
  Cmax for prodrug (Cmax PD) in plasma: 103 µg/mL
[5]
  fraction of prodrug absorbed intact following oral administration: about 60%
[5]; oral dosing of prodrug
  oral bioavailability of gabapentin provided by prodrug: about 53%

## N#Cc1cccc(C[C@H](N)C(=O)NCC2(CC(=O)O)CCCCC2)c1 [1al, L-3-Cyanophenylalanine-Gabapentin]
[1]
  % of prodrug surviving intact: 46%
In vivo [2]
  Cmax for prodrug (Cmax PD) in plasma: 0.6 µg/mL

## N#Cc1ccc(C[C@H](N)C(=O)NCC2(CC(=O)O)CCCCC2)cc1 [1am, L-4-Cyanophenylalanine-Gabapentin]
[1]
  % of prodrug surviving intact: 90%
In vivo [2]
  Cmax for prodrug (Cmax PD) in plasma: 22.4 µg/mL

## N[C@@H](Cc1cc(F)cc(F)c1)C(=O)NCC1(CC(=O)O)CCCCC1 [1ao, L-3,5-Difluorophenylalanine-Gabapentin]
[1]
  % of prodrug surviving intact: 48%
In vivo [2]
  Cmax for prodrug (Cmax PD) in plasma: 2.9 µg/mL

## NC(Cc1ccc(F)cc1F)C(=O)NCC1(CC(=O)O)CCCCC1 [1ap, D, L-2,4-Difluorophenylalanine-Gabapentin]
[1]
  % of prodrug surviving intact: 90%
In vivo [2]
  Cmax for prodrug (Cmax PD) in plasma: 278 µg/mL

## N[C@@H](CO)C(=O)NCC1(CC(=O)O)CCCCC1 [1ax, L-Serine-Gabapentin]
[6]; 10 mg-eq/kg
  oral bioavailability as gabapentin (F): 41.5±12.2%
  AUC for gabapentin (AUC G): 24.7 ± 7.3 µg·h/mL
  Cmax for gabapentin (Cmax G): 3.7 ± 1.1 µg/mL
[6]; 75 mg-eq/kg
  oral bioavailability as gabapentin (F): 28.1±1.1%
  AUC for gabapentin (AUC G): 125 ± 5.0 µg·h/mL
  Cmax for gabapentin (Cmax G): 14.5 ± 1.6 µg/mL
[6]
  increase in gabapentin exposure (as measured by AUC) for a 7.5-fold increase in dose: 5.1 fold
[5]
  fraction of prodrug absorbed intact following oral administration: 15-20%

## N[C@@H](Cc1cccc2ccccc12)C(=O)NCC1(CC(=O)O)CCCCC1 [1l, L-1-Naphthylalanine-Gabapentin]
[1]
  % of prodrug surviving intact: 29%
In vivo [2]
  Cmax for prodrug (Cmax PD) in plasma: 0.5 µg/mL

## CC(C)C[C@H](CNC(=O)[C@@H](N)Cc1ccc(Br)cc1)CC(=O)O [compound 5, L-4-Bromophenylalanine-Pregabalin]
PEPT2
  PEPT-specific current, % of Imax for Gly-Sar: at least 5 % of Imax for Gly-Sar
PEPT1
  PEPT-specific current, % of Imax for Gly-Sar: at least 5 % of Imax for Gly-Sar

## NCC1(CC(=O)O)CCCCC1 [gabapentin]
In vivo [7]; 10 mg/kg
  AUC: 32.1 ± 10.4 µg·h/mL
  Cmax: 3.7 ± 1.6 µg/mL
  bioavailability: 53.9 ± 17.3%
In vivo [7]; 75 mg/kg
  AUC: 102 ± 4.9 µg·h/mL
  Cmax: 10.8 ± 1.3 µg/mL
  bioavailability: 22.9 ± 1.1%
[8]; dose of 300 mg
  oral bioavailability: about 60%
[8]; dose of 1600 mg
  oral bioavailability: about 35%
[6]
  increase in gabapentin exposure (as measured by AUC) for a 7.5-fold increase in dose: 3.2 fold
In vivo [2]; [9]
  Cmax: 10.3 µg/mL
  half-life: 2.4 ± 0.5 h

## L-Tyrosine-(O-2-Bromobenzyloxycarbonyl)-Gabapentin [4d]
[1]
  % of prodrug surviving intact: 3%

Reference: patent US20030181390A1, “Amino acid conjugates providing for sustained systemic concentrations of GABA analogues” (priority 2002, published 2003)
